Data: US7189519B2, “Bead-based detection of ligand-GPCR-G protein complexes” (STC.UNM, priority 1998, dated 2007)
Residues, ends and D or L forms follow the SMILES beside them. *: point of attachment. For = O=C*

System: FPR-GFP with Gαβγ on DCNi beads (LR^FG ternary complex)
Test: Standard LRG assembly assay with FPR-GFP (R^F) on G protein beads, flow cytometry
Type: biochemical, human
Settings: for EC50: standard assembly with 30 nM R^F, three experiments, read-out: EC50 for LRG formation
Method: Standard LRG Assembly Assay. […] Each mixture was mixed by pipetting to ensure a uniform starting suspension of the beads in 96 V-well plates (Costar), and then mixed at low speed on a vortex mixer at 7° for two hours. The 10 μl assays were individually brought to 200 μl with 0.1% dodecyl maltoside in buffer A in 12×75 mm tubes for flow cytometric measurement of fluorescence of the beads. LRG assembly was defined as the difference between fluorescence without GTPγS and that with GTPγS. All determinations were done in duplicate.

Compound | EC50 [nM] | calculated maximal assembly, of the LRG assembly of the longer peptides (near the limit of solubility of fML)
CSCC[C@H](NC=O)C(=O)N[C@@H](CC(C)C)C(=O)N[C@@H](Cc1ccccc1)C(=O)N[C@@H](Cc1ccccc1)C(=O)O [fMLFF] (For-MLFF-OH; C-terminus assumed) | 27 | –
CSCC[C@H](NC=O)C(=O)N[C@@H](CC(C)C)C(=O)O [fML] (For-Met-Leu-OH; C-terminus assumed) | 5300 | 78+/−3%
